Laboratory results from PubChem BioAssay (NCI).
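Briefly, cells in 96-well plates were exposed to five compound concentrations for 48 h, and endpoints were estimated by linear interpolation. Definition used: TGI = concentration required for complete inhibition of growth.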

Key:
Assay in all cases: inhibition of tumour cell growth, NCI panel, 48 h
[1] = tested on: NCI-H23 lung
[2] = tested on: BT-549 breast
[3] = tested on: HOP-92 NSCLC
[4] = tested on: A498 renal
[5] = tested on: SN12C renal
[6] = tested on: MALME-3M melanoma
[7] = tested on: SF-539 CNS
[8] = tested on: HL-60(TB) leukemia
[9] = tested on: OVCAR-5 ovarian
[10] = tested on: MDA-MB-231 breast
[11] = tested on: HCT-116 colon
[12] = tested on: MOLT-4 leukemia
[13] = tested on: SR leukemia
[14] = tested on: SW-620 colon
[15] = tested on: KM12 colon
[16] = tested on: SNB-19 CNS
[17] = tested on: HS 578T breast
[18] = tested on: MDA-MB-435
[19] = tested on: U251 CNS
[20] = tested on: UO-31 renal
[21] = tested on: M14 melanoma
[22] = tested on: OVCAR-3 ovarian
[23] = tested on: 786-0 renal
[24] = tested on: NCI/ADR-RES ovarian
[25] = tested on: LOX IMVI melanoma
[26] = tested on: NCI-H226 lung
[27] = tested on: HCT-15 colon
[28] = tested on: SK-OV-3 ovarian
[29] = tested on: NCI-H460 lung
[30] = tested on: SK-MEL-28 melanoma
[31] = tested on: MCF7 breast
[32] = tested on: HCC-2998 colon
[33] = tested on: OVCAR-8 ovarian
[34] = tested on: SF-268 CNS
[35] = tested on: OVCAR-4 ovarian
[36] = tested on: EKVX NSCLC
[37] = tested on: DU-145 prostate
[38] = tested on: UACC-62 melanoma
[39] = tested on: K-562 leukemia
[40] = tested on: SF-295 CNS
[41] = tested on: HOP-62 NSCLC
[42] = tested on: ACHN renal
[43] = tested on: UACC-257 melanoma
[44] = tested on: SK-MEL-5 melanoma
[45] = tested on: COLO 205 colon
[46] = tested on: MDA-N
[47] = tested on: CAKI-1 renal
[48] = tested on: CCRF-CEM leukemia
[49] = tested on: A549 NSCLC
[50] = tested on: SNB-75 CNS
[51] = tested on: PC-3 prostate
[52] = tested on: RXF 393 renal
[53] = tested on: NCI-H522 lung
[54] = tested on: T-47D breast
[55] = tested on: SK-MEL-2 melanoma
[56] = tested on: TK-10 renal
[57] = tested on: HT29 colon
[58] = tested on: RPMI-8226 leukemia
[59] = tested on: IGROV1 ovarian

O=C1CS(=O)(=O)C(c2cccc(Oc3ccccc3)c2)N1c1ccccc1 (centres undefined)
TGI [1]: 94.6 µM
TGI [2]: 49.1 µM
TGI [3]: 32.8 µM
TGI [4]: 41.8 µM
TGI [5]: 39.7 µM
TGI [6]: 42.6 µM
TGI [7]: 39.6 µM
TGI [8]: > 100 µM
TGI [9]: > 100 µM
TGI [10]: 62.6 µM
TGI [11]: 30.8 µM
TGI [12]: 65.7 µM
TGI [13]: 57 µM
TGI [14]: > 100 µM
TGI [15]: > 100 µM
TGI [16]: > 100 µM
TGI [17]: 69.9 µM
TGI [18]: 68.2 µM
TGI [19]: 33.3 µM
TGI [20]: 80.4 µM
TGI [21]: 38.7 µM
TGI [22]: 55.1 µM
TGI [23]: 37.8 µM
TGI [24]: 83 µM
TGI [25]: 32.7 µM
TGI [26]: 45.6 µM
TGI [27]: 66 µM
TGI [28]: > 100 µM
TGI [29]: 38.4 µM
TGI [30]: 85.4 µM
TGI [31]: 33.3 µM
TGI [32]: 35 µM
TGI [33]: > 100 µM
TGI [34]: 75.8 µM
TGI [35]: > 100 µM
TGI [36]: 54.2 µM
TGI [37]: > 100 µM
TGI [38]: 27 µM
TGI [39]: 60.1 µM
TGI [40]: > 100 µM
TGI [41]: > 100 µM
TGI [42]: 64.8 µM
TGI [43]: 46 µM
TGI [44]: 29.3 µM
TGI [45]: 37.2 µM
TGI [46]: 44.2 µM
TGI [47]: 58.3 µM
TGI [48]: > 100 µM
TGI [49]: > 100 µM
TGI [50]: > 100 µM
TGI [51]: 66.8 µM
TGI [52]: 38.7 µM
TGI [53]: 47.9 µM
TGI [54]: > 100 µM
TGI [55]: 31.5 µM
TGI [56]: 60 µM
TGI [57]: > 100 µM

CN(C)CCSCCO
TGI [1]: > 100 µM
TGI [2]: > 100 µM
TGI [3]: > 100 µM
TGI [4]: > 100 µM
TGI [5]: > 100 µM
TGI [6]: > 100 µM
TGI [7]: > 100 µM
TGI [8]: > 100 µM
TGI [9]: > 100 µM
TGI [10]: > 100 µM
TGI [11]: > 100 µM
TGI [13]: > 100 µM
TGI [14]: > 100 µM
TGI [15]: > 100 µM
TGI [16]: > 100 µM
TGI [17]: > 100 µM
TGI [18]: > 100 µM
TGI [19]: > 100 µM
TGI [20]: > 100 µM
TGI [21]: > 100 µM
TGI [22]: > 100 µM
TGI [23]: > 100 µM
TGI [24]: > 100 µM
TGI [25]: > 100 µM
TGI [26]: > 100 µM
TGI [27]: > 100 µM
TGI [28]: > 100 µM
TGI [29]: > 100 µM
TGI [30]: > 100 µM
TGI [31]: > 100 µM
TGI [32]: > 100 µM
TGI [33]: > 100 µM
TGI [34]: > 100 µM
TGI [35]: > 100 µM
TGI [36]: > 100 µM
TGI [58]: > 100 µM
TGI [37]: > 100 µM
TGI [38]: > 100 µM
TGI [39]: > 100 µM
TGI [40]: > 100 µM
TGI [41]: > 100 µM
TGI [59]: > 100 µM
TGI [42]: > 100 µM
TGI [43]: > 100 µM
TGI [44]: > 100 µM
TGI [45]: > 100 µM
TGI [46]: > 100 µM
TGI [47]: > 100 µM
TGI [49]: > 100 µM
TGI [50]: > 100 µM
TGI [51]: > 100 µM
TGI [52]: > 100 µM
TGI [53]: > 100 µM
TGI [54]: > 100 µM
TGI [55]: > 100 µM
TGI [56]: > 100 µM
TGI [57]: > 100 µM

COc1cc2c(cc1OC)[C@@](C)(C(O)C(O)C(C)(C)O)NCC2 (some centres undefined)
TGI [1]: > 100 µM
TGI [2]: > 100 µM
TGI [3]: > 100 µM
TGI [4]: > 100 µM
TGI [5]: > 100 µM
TGI [6]: > 100 µM
TGI [7]: > 100 µM
TGI [8]: > 100 µM
TGI [9]: > 100 µM
TGI [10]: > 100 µM
TGI [11]: > 100 µM
TGI [12]: > 100 µM
TGI [13]: > 100 µM
TGI [16]: > 100 µM
TGI [17]: > 100 µM
TGI [18]: > 100 µM
TGI [19]: > 100 µM
TGI [20]: > 100 µM
TGI [21]: > 100 µM
TGI [22]: > 100 µM
TGI [23]: > 100 µM
TGI [24]: > 100 µM
TGI [25]: > 100 µM
TGI [26]: > 100 µM
TGI [27]: > 100 µM
TGI [28]: > 100 µM
TGI [30]: > 100 µM
TGI [31]: > 100 µM
TGI [33]: > 100 µM
TGI [34]: > 100 µM
TGI [35]: > 100 µM
TGI [36]: > 100 µM
TGI [58]: > 100 µM
TGI [37]: > 100 µM
TGI [38]: > 100 µM
TGI [39]: > 100 µM
TGI [40]: > 100 µM
TGI [41]: > 100 µM
TGI [59]: > 100 µM
TGI [42]: > 100 µM
TGI [43]: > 100 µM
TGI [44]: > 100 µM
TGI [45]: > 100 µM
TGI [46]: > 100 µM
TGI [47]: > 100 µM
TGI [48]: > 100 µM
TGI [49]: > 100 µM
TGI [50]: > 100 µM
TGI [51]: > 100 µM
TGI [52]: > 100 µM
TGI [53]: > 100 µM
TGI [54]: > 100 µM
TGI [55]: > 100 µM
TGI [56]: > 100 µM
TGI [57]: > 100 µM
